Assays:
Akt = assay: Western blot after siAkt or GSK690693C treatment in LNCaP cells; assay type: cell-based, human
Protocol: Twenty-four hours after culturing in 10 cm dishes at 7×10^5 cells per dish, Hsp27 siRNA (siHsp27) or scrambled siRNA (Scr) duplexes were transfected into cells. Briefly, the RNA duplex was diluted in Opti-MEN® serum-free medium and Oligofectamin (Invitrogen-Life Technologies). After 20 min, cells were transfected at 37? for 4-6 h and then were placed in standard medium. Forty-eight hours after transfection, cells were harvested and were analyzed in each experiment. To knockdown Akt, Akt1 siRNA (siAkt) duplexes (Cell signaling) were used. Twenty-four hours after transfection for 24 h, cells were harvested and then were analyzed as well. An siRNA duplex corresponding to the human Hsp27 site (sequence of one strand 5′-[…]-3′, SEQ ID NO: 2; Dharmacon, Lafayette, Colo.) was used. […]
Proteins (20-40 μg/lane) extracted in RIPA buffer from cells, were electrophoresed in SDS-polyacrylamide gels (SDS/PAGE) and transferred to PDVF membranes (Milipore, Bedford, Mass.) by a wet transfer method. […] Bands were detected by using an enhanced chemiluminescence Western blotting analysis system (Amersham Life Science, Arlington Heights, Ill.).
LNCaPHsp27 and LNCaP with empty vector (LNCaPmock) cells were assessed 24 h after culture. Cell lysates were collected 24 hours after culture and bands were detected with the indicated antibodies by Western blot assay. […]

PC-3 cells = assay: Combination treatment with siHsp27 and LY-294002 in PC-3 cells; assay type: cell-based, human
Protocol: LY-294002 (2-(4-morpholinyl)-8-phenyl-4H-1-benzopyran-4-one) is a selective phosphatidylinositol 3-kinase (PI3K) inhibitor. Combination treatment with siHsp27 and LY-294002 treatment was assessed in PC-3 cells.

hsp27 [1] = settings: Tanaka et al., Int J Gynecol Cancer 2004; cited from earlier work
Hsp27 [2] = settings: preclinical studies, cited from earlier work

## CCn1c(-c2nonc2N)nc2c(C#CC(C)(C)O)ncc(OC[C@H]3CCCNC3)c21 [GSK690693C]
Akt
  phospho-Akt level (Western blot): up-regulation of phospho-Akt
  phospho-GSK-3B and phospho-PEA15 levels (Western blot): dose-dependent decrease of phospho-GSK-3B and phospho-PEA15

## O=c1cc(N2CCOCC2)oc2c(-c3ccccc3)cccc12 [LY-294002, 2-(4-morpholinyl)-8-phenyl-4H-1-benzopyran-4-one]
PC-3 cells
  PTEN expression: reduced PTEN expression
PC-3 cells; combination with siHsp27
  effect on growth inhibition by Hsp27 knockdown: reduced the growth inhibitory effect by Hsp27 knockdown in dose-dependent manner

## CC(=O)O[C@H]1C(=O)[C@@]2(C)[C@H]([C@H](OC(=O)c3ccccc3)[C@]3(O)C[C@H](OC(=O)[C@H](O)[C@@H](NC(=O)c4ccccc4)c4ccccc4)C(C)=C1C3(C)C)[C@]1(OC(C)=O)CO[C@@H]1C[C@@H]2O [Paclitaxel]
hsp27 [1]
  hsp27 expression: inhibitor of hsp27 expression

## OGX-427: antisense oligonucleotide targeting hsp27, gggacgcggc gctcggtcat, SEQ ID No. 1, described in U.S. Pat. No. 7,101,991 (antisense GGGACGCGGCGCTCGGTCAT; listed as DNA, chemistry not given here; listed as Homo sapiens)
Hsp27 [2]; combination with cytotoxic drugs
  chemosensitization: acts as a chemosensitizer in combination with several cytotoxic drugs including docetaxel
Hsp27 [2]; single agent
  anti-tumor activity: has single agent anti-tumor activity
Hsp27 [2]
  apoptosis in human cancer cell lines: induces apoptosis in several human cancer cell lines
  levels of Hsp27: significantly decreases levels of Hsp27

From patent US20090281166A1, “Treatment of Cancer by Inhibition of HSP27” (THE UNIVERSITY OF BRITISH COLUMBIA, priority 2008, published 2009)
